Laboratory results taken from patent US12209071B2, “Triazine derivatives for treating diseases relating to neurotrophins” (AlzeCure Pharma AB, priority 2018, dated 2025).

Assays:
[1] = target: T1, TrkA (Homo sapiens, UniProt P04629); experiment: Enzyme Fragment Complementation cell-based assay, TrkA; settings: U2OS-cells over-expressing TrkA; ligand 10 ng/mL; 3 hours incubation
T1 construct: expressed in transfected cells; host or cells: U2OS
Description: (§1) A high throughput cell-based screen has been used to identify positive modulators of TrkA, TrkB and TrkC. The screen involves the use of cell-based assay overexpressing TrkA, TrkB or TrkC. The purpose of the assay is to identify compounds that modulate neurotrophin signalling (Forsell et al 2012). The assay can be used in inhibitor mode using a high concentration of ligand, in modulator mode using an intermediate concentration and in agonist mode using a low concentration of ligand.
(§2) The assay uses Enzyme Fragment Complementation (EFC) technique, which is a proximity-based assay. Briefly, cells used in this assay over-express two fusion proteins, i.e. the receptor, which can be either one of TrkA, TrkB, TrkC, IGF1R or FGFR1, fused to a small peptide of beta-galactosidase and an adaptor protein, i.e. SHC1 (or any other Trk-adaptor protein) fused to the major part of beta-galactosidase. […] The proximity between the small activating peptide on the receptor and the major part of beta-galactosidase on the adaptor protein leads to an active beta-galactosidase enzyme. The activation of the receptor is quantified by measuring the amount of active beta-galactosidase by its conversion of a non-luminescent substrate into a luminescent product.
(§3) U2OS-cells, over-expressing TrkA or TrkB or TrkC, are plated in 96- or 384-well plates and incubated overnight. Alternatively, cryopreserved HEK293-cells expressing IGFR1 or cryopreserved U2OS-cells expressing FGFR1 were plated in 96- or 384-well plates. On the following day, test compound was pre-mixed with ligand (NGF, BDNF, NT-3, IGF-1 or basic fibroblast growth factor (bFGF(FGF-2))) and the ligand-compound mixture is then added to the cells to yield a final ligand concentration of 10 ng/mL. After 3 hours of incubation at room temperature, the incubation is stopped by the addition of a beta-galactosidase substrate mixture containing detergents. The substrate mixture is incubated for 60 minutes at ambient temperature. The luminescence is thereafter read by the use of a plate reader.

[2] = target: T2, TrkB (Homo sapiens, UniProt Q16620); experiment: Enzyme Fragment Complementation cell-based assay, TrkB; settings: U2OS-cells over-expressing TrkB; ligand 10 ng/mL; 3 hours incubation
T2 construct: expressed in transfected cells; host or cells: U2OS
Description: as §1, §2, §3

T2 sequence (Q16620 32-822): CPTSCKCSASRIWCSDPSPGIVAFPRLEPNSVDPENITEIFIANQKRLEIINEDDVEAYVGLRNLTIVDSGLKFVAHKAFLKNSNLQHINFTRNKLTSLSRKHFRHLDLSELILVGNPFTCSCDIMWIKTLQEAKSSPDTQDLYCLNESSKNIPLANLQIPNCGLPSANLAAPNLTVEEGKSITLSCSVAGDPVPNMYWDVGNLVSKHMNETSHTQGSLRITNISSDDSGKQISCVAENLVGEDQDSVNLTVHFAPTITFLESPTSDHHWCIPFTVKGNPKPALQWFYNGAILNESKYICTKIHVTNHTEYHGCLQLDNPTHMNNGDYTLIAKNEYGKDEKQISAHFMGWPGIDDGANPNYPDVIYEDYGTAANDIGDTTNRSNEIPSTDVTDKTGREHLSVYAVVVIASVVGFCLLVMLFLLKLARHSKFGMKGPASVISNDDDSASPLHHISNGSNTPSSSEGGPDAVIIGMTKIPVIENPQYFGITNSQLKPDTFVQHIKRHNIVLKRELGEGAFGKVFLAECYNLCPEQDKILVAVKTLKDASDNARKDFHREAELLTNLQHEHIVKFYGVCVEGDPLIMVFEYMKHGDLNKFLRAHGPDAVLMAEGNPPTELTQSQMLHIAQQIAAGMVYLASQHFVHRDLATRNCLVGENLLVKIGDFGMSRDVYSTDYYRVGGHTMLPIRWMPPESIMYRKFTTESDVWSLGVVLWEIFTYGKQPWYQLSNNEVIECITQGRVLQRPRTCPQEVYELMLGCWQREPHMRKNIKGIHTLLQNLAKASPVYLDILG
T1 sequence (P04629 33-796): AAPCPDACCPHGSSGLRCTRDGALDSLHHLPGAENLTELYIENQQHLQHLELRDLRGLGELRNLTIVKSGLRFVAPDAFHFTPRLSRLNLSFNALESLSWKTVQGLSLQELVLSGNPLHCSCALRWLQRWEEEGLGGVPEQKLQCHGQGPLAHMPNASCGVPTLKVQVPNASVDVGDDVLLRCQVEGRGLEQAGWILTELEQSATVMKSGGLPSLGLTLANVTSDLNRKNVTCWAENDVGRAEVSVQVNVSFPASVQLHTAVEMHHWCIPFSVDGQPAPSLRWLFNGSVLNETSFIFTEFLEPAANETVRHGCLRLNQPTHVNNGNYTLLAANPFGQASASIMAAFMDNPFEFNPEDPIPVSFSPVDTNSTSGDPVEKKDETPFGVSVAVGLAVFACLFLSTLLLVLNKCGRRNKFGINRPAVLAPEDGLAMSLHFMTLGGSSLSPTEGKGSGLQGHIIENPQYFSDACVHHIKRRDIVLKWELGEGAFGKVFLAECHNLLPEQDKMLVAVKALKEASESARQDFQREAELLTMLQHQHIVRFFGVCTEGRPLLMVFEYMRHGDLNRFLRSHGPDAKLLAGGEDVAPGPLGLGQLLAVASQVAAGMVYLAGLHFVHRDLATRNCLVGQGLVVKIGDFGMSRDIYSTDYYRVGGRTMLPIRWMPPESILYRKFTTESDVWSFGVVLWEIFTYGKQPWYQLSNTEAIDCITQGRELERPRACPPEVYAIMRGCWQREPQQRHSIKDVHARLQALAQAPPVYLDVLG

Row | SMILES | EC50 [1] [µM] | EC50 [2] [µM]
1 | COC(=O)c1cc(-n2c(=O)[nH]c(=O)n(-c3ccccc3)c2=O)ccc1Oc1ccccc1 [Example 74, methyl 2-phenoxy-5-(2,4,6-trioxo-3-phenyl-1,3,5-triazinan-1-yl)benzoate] | 0.58 | 0.54
2 | Cc1cc(-n2c(=O)[nH]c(=O)n(-c3cccc(OC(F)(F)F)c3)c2=O)ccc1Oc1ccccc1 [Example 44, 1-(3-methyl-4-phenoxyphenyl)-3-[3-(trifluoromethoxy)phenyl]-1,3,5-triazinane-2,4,6-trione] | 0.33 | 0.26
3 | COc1cc(-n2c(=O)[nH]c(=O)n(C)c2=O)cc(C)c1Oc1ccccc1 [Example 32, 1-(3-methoxy-5-methyl-4-phenoxyphenyl)-3-methyl-1,3,5-triazinane-2,4,6-trione] | 0.8 | 
4 | Cc1ccccc1Oc1ccc(-n2c(=O)[nH]c(=O)n(-c3ccccc3)c2=O)cc1C [Example 62, 1-[3-methyl-4-(2-methylphenoxy)phenyl]-3-phenyl-1,3,5-triazinane-2,4,6-trione] | 0.93 | 3.18
5 | COc1cccc(-n2c(=O)[nH]c(=O)n(-c3ccc(Oc4ccccc4)c(C)c3)c2=O)c1 [Example 50, 1-(3-methoxyphenyl)-3-(3-methyl-4-phenoxyphenyl)-1,3,5-triazinane-2,4,6-trione] | 0.31 | 0.19
6 | Cn1c(=O)[nH]c(=O)n(-c2ccc3c(cnn3-c3ccccc3)c2)c1=O [Example 31, 1-methyl-3-(1-phenyl-1H-indazol-5-yl)-1,3,5-triazinane-2,4,6-trione] | 46 | 69
7 | COc1ccccc1-n1c(=O)[nH]c(=O)n(-c2ccc(Oc3ccccc3)c(C)c2)c1=O [Example 51, 1-(2-methoxyphenyl)-3-(3-methyl-4-phenoxyphenyl)-1,3,5-triazinane-2,4,6-trione] | 0.18 | 0.26
8 | O=c1[nH]c(=O)n(-c2ccc3c(cnn3-c3ccccc3)c2)c(=O)n1-c1ccccc1 [Example 19, 1-phenyl-3-(1-phenyl-1H-indazol-5-yl)-1,3,5-triazinane-2,4,6-trione] | 0.82 | 0.88
9 | Cc1cc(-n2c(=O)[nH]c(=O)n(-c3ccc(Oc4ccccc4)c(C)c3)c2=O)ccc1Oc1ccccc1 [Example 67, 1,3-bis(3-methyl-4-phenoxyphenyl)-1,3,5-triazinane-2,4,6-trione] | 3.2 | 26
10 | O=c1[nH]c(=O)n(-c2ccc(Oc3ccccc3)c(CO)c2)c(=O)n1-c1ccccc1 [Example 75, 1-[3-(hydroxymethyl)-4-phenoxyphenyl]-3-phenyl-1,3,5-triazinane-2,4,6-trione] | 1.17 | 1.8
11 | COc1cccc(-n2c(=O)[nH]c(=O)n(-c3ccc(Oc4ccccc4)c(OC)c3)c2=O)c1 [Example 52, 1-(3-methoxy-4-phenoxyphenyl)-3-(3-methoxyphenyl)-1,3,5-triazinane-2,4,6-trione] | 0.38 | 0.41
12 | Cc1cc(-n2c(=O)[nH]c(=O)n(-c3ccccc3)c2=O)ccc1Cc1ccccc1 [Example 42, 1-(4-benzyl-3-methylphenyl)-3-phenyl-1,3,5-triazinane-2,4,6-trione] | 0.19 | 0.28
13 | Cc1cc(Oc2ccccc2)ccc1-n1c(=O)[nH]c(=O)n(-c2ccccc2)c1=O [Example 70, 1-(2-methyl-4-phenoxyphenyl)-3-phenyl-1,3,5-triazinane-2,4,6-trione] | 0.66 | 0.35
14 | CN(C)C(=O)COc1cc(-n2c(=O)[nH]c(=O)n(-c3ccccc3)c2=O)ccc1Oc1ccccc1 [Example 77, 1-{3-[2-(Dimethylamino)-2-oxoethoxy]-4-phenoxyphenyl}-3-phenyl-1,3,5-triazinane-2,4,6-trione] | 0.43 | 0.36
15 | Cc1cc(-n2c(=O)[nH]c(=O)n(C)c2=O)ccc1Oc1ccccc1 [Example 55, 1-methyl-3-(3-methyl-4-phenoxyphenyl)-1,3,5-triazinane-2,4,6-trione] | 0.39 | 1.4
16 | COCCOc1cc(-n2c(=O)[nH]c(=O)n(-c3cccc(OC)c3)c2=O)ccc1Oc1ccccc1 [Example 61, 1-[3-(2-methoxyethoxy)-4-phenoxyphenyl]-3-(3-methoxyphenyl)-1,3,5-triazinane-2,4,6-trione] | 0.42 | 0.38
17 | COc1cc(-n2c(=O)[nH]c(=O)n(-c3ccccc3)c2=O)cc(C)c1Oc1ccccc1 [Example 14, 1-(3-methoxy-5-methyl-4-phenoxyphenyl)-3-phenyl-1,3,5-triazinane-2,4,6-trione] | 0.49 | 
18 | Cc1cc(-n2c(=O)[nH]c(=O)n(-c3cccc4occc34)c2=O)ccc1Oc1ccccc1 [Example 72, 1-(1-benzofuran-4-yl)-3-(3-methyl-4-phenoxyphenyl)-1,3,5-triazinane-2,4,6-trione] | 0.2 | 0.11
19 | Cc1cc(-n2c(=O)[nH]c(=O)n(-c3ccc4[nH]ccc4c3)c2=O)ccc1Oc1ccccc1 [Example 47, 1-(1H-indol-5-yl)-3-(3-methyl-4-phenoxyphenyl)-1,3,5-triazinane-2,4,6-trione] | 0.48 | 0.27
20 | Cc1ccc(-n2c(=O)[nH]c(=O)n(-c3ccc(Oc4ccccc4)cc3C)c2=O)cc1 [Example 71, 1-(2-methyl-4-phenoxyphenyl)-3-(4-methylphenyl)-1,3,5-triazinane-2,4,6-trione] | 1.66 | 0.61
21 | Cc1cc(-n2c(=O)[nH]c(=O)n(-c3cccc4ccoc34)c2=O)ccc1Oc1ccccc1 [Example 73, 1-(1-benzofuran-7-yl)-3-(3-methyl-4-phenoxyphenyl)-1,3,5-triazinane-2,4,6-trione] | 0.14 | 0.1
22 | Cc1cc(-n2c(=O)[nH]c(=O)n(-c3ccccc3)c2=O)c(C)cc1Oc1ccccc1 [Example 54, 1-(2,5-dimethyl-4-phenoxyphenyl)-3-phenyl-1,3,5-triazinane-2,4,6-trione] | 0.44 | 0.31
23 | Cc1cc(-n2c(=O)[nH]c(=O)n(-c3ccc4occc4c3)c2=O)ccc1Oc1ccccc1 [Example 46, 1-(1-benzofuran-5-yl)-3-(3-methyl-4-phenoxyphenyl)-1,3,5-triazinane-2,4,6-trione] | 0.48 | 0.24
24 | Cc1cc(-n2c(=O)[nH]c(=O)n(-c3ccc(F)cc3)c2=O)ccc1Oc1ccccc1 [Example 45, 1-(4-fluorophenyl)-3-(3-methyl-4-phenoxyphenyl)-1,3,5-triazinane-2,4,6-trione] | 0.47 | 0.36
25 | COc1ccc(-n2c(=O)[nH]c(=O)n(-c3ccc(Oc4ccccc4)cc3)c2=O)cc1 [Example 2, 1-(4-methoxyphenyl)-3-(4-phenoxyphenyl)-1,3,5-triazinane-2,4,6-trione] | 1.4 | 2.4
26 | CN(C)C(=O)Cc1cc(-n2c(=O)[nH]c(=O)n(-c3ccccc3)c2=O)ccc1Oc1ccccc1 [Example 76, 1-{3-[2-(Dimethylamino)-2-oxoethyl]-4-phenoxyphenyl}-3-phenyl-1,3,5-triazinane-2,4,6-trione] | 33 | 4.53
27 | N#Cc1cccc(-n2c(=O)[nH]c(=O)n(-c3ccc(Oc4ccccc4)cc3)c2=O)c1 [Example 3, 3-[2,4,6-trioxo-3-(4-phenoxyphenyl)-1,3,5-triazinan-1-yl]benzonitrile] | 6.7 | 
